Test [1] relates to bacterial cells expressing an adenine DNA methyltransferase. It is filed as cell-based.
Another test concerns Bacillus subtilis. Put plainly: microbe, parasite or virus in culture. The test is classed as cell-based.
In another test the test system is Caulobacter cresentus. In words: microbe, parasite or virus in culture. The test is classed as cell-based.
In test [2] the test system is Agrobacterium tumefaciens. The test is classed as cell-based. To be noted: read-out: IC50, cell growth inhibition.
The test system of the next test is Helicobacter pylori. The test is classed as cell-based. To be noted: read-out: IC50, cell growth inhibition.
For another test, the target named is dam methylase (E. coli) (Escherichia coli, UniProt P0AEE8). The test is classed as biochemical. The settings on record: at 100 μM.
For test [3], the target named is dcm methyltransferase (HhaI) (Haemophilus parahaemolyticus, UniProt P05102). The test is classed as biochemical, Hemophilus hemolyticus. The settings on record: at 500 μM.
Test [4] addresses adenine DNA methyltransferase (Caulobacter vibrioides (Caulobacter crescentus), UniProt P0CAW2). The test is classed as biochemical.
Setting [5] is: read-out: IC50, cell growth inhibition.
[6] abbreviates: Bacillus subtilis, read-out: IC50, Bacillus subtilis.
[7] abbreviates: Caulobacter, read-out: IC50, Caulobacter cresentus.

Where two headings read alike, the source gives them in different places.

Consider twelve compounds from patent publication US20040259833A1 (priority 1999, published 2004).

Chain of dcm methyltransferase (HhaI) (P05102 whole entry): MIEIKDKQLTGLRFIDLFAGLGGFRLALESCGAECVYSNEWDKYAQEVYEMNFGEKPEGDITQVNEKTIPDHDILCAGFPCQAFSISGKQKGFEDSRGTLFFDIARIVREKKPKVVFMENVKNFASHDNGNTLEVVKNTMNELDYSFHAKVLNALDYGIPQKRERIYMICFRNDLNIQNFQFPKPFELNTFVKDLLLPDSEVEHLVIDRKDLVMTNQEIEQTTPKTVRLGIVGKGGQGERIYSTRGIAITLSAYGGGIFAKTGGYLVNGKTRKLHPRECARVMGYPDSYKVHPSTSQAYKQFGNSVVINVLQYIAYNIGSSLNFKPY
Chain of dam methylase (E. coli) (P0AEE8 whole entry): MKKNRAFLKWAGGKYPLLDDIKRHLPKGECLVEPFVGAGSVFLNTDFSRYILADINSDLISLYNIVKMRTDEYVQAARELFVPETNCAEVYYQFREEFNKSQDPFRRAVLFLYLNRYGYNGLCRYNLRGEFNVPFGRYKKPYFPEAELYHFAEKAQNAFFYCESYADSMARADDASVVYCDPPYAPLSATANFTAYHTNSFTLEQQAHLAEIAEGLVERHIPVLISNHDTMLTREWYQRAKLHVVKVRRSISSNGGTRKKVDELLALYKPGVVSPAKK
Chain of adenine DNA methyltransferase (P0CAW2 whole entry): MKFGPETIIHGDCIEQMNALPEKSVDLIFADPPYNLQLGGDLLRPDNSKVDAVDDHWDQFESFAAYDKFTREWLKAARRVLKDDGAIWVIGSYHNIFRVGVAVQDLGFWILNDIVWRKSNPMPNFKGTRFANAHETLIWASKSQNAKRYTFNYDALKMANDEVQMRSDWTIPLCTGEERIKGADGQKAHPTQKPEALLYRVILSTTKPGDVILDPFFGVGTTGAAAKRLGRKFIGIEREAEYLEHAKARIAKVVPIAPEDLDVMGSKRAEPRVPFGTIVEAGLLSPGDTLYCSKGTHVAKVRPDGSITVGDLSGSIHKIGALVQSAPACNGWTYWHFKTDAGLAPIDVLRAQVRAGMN

With `c1ccc(B(OCCNc2ncnc3[nH]cnc23)c2ccccc2)cc1`, in test [1], the “concentration that inhibits cell growth” value was less than 50 µM.

For orientation: IC50 means the concentration needed to halve the response being measured. Take “6-N-(diphenylborinic ester)-ethyl-9-(2-(2-(2-hydroxyethoxy)ethoxy)ethyl)-adenine [Compound 3d]”: the half-inhibitory concentration (IC50) is 10 to 50 µM in the test on Bacillus subtilis (setting [5]), less than 25 µM in the test on Caulobacter cresentus (setting [5]), less than 25 µM in test [2] and 25 to 100 µM with Helicobacter pylori. Moreover, on dam methylase (E. coli), the “inhibition of dam methylase (E. coli)” value is reported as “Complete inhibition”. The “inhibition of dcm methyltransferase (HhaI)” value (“inhibition … (HhaI)” for short) in test [3] is reported as “No inhibition at all”.

For “6-N-(diphenylborinic ester)-ethyl-9-(2-(4-morpholinyl)-ethyl)-adenine [Compound 3b]”, the IC50 in the test with Bacillus subtilis (setting [5]) was 1 to 10 µM; in the test on Caulobacter cresentus (setting [5]), less than 25 µM; in test [2], 25 µM; in the test with Helicobacter pylori, less than 25 µM. Besides, the “inhibition of dam methylase (E. coli)” value against dam methylase (E. coli) is recorded as “Complete inhibition”. The “inhibition … (HhaI)” value in test [3] is on record as “No inhibition at all”.

As to “6-N-(diphenylborinic ester)-ethyl-9-(3-(N-phthaloyl)-aminopropyl)-adenine [Compound 3c]”, the half-maximal inhibitory concentration (IC50) was 1 to 10 µM in the test on Bacillus subtilis (setting [5]), less than 25 µM in the test with Caulobacter cresentus (setting [5]), 25 µM in test [2] and 25 to 100 µM with Helicobacter pylori. Further, the “inhibition of dam methylase (E. coli)” value on dam methylase (E. coli) was “Complete inhibition”. In addition, the “inhibition … (HhaI)” value in test [3] is “No inhibition at all”.

Take “6-N-(diphenylborinic ester)-ethyl-9-(ethyl-2-acrylate)-methyl-adenine [Compound 3e]”: the concentration for half-maximal inhibition (IC50) was less than 25 µM in the test on Caulobacter cresentus (setting [5]), less than 25 µM in test [2] and 25 µM with Helicobacter pylori. On dam methylase (E. coli), the “inhibition of dam methylase (E. coli)” value is recorded as “Complete inhibition”. Besides, the “inhibition … (HhaI)” value in test [3] is recorded as “No inhibition at all”.

In the case of “6-N-(diphenylborinic ester)-ethyl-adenine [Compound 3a]”, the IC50 with Bacillus subtilis (setting [5]) is 10 to 50 µM; with Caulobacter cresentus (setting [5]), less than 25 µM; in test [2], more than 100 µM; with Helicobacter pylori, less than 25 µM. The “inhibition of dam methylase (E. coli)” value against dam methylase (E. coli) is listed as “Complete inhibition”. Also, the “inhibition … (HhaI)” value in test [3] was “No inhibition at all”.

For `Fc1ccc([B-]2(c3ccc(F)cc3)Oc3cccc4ccc[n+]2c34)cc1` [(1), di-(p-fluorophenyl)borinic acid 8-hydroxyquiniline ester], the concentration for half-maximal inhibition (IC50) in the test with Bacillus subtilis (setting [6]) was 14 µM; in the test on Caulobacter cresentus (setting [7]), 23 µM.

Regarding `Clc1ccc([B-]2(c3ccc(Cl)cc3)Oc3cccc4ccc[n+]2c34)cc1` [(2), di-(p-chlorophenyl)borinic acid 8-hydroxyquiniline ester], the IC50 with Bacillus subtilis (setting [6]) stood at 7 µM; in the test with Caulobacter cresentus (setting [7]), 16 µM.

Consider `c1ccc([B-]2(c3ccccc3)Oc3cccc4ccc[n+]2c34)cc1` [(3), diphenylborinic acid 8-hydroxyquiniline ester], for which the 50% inhibitory concentration (IC50) in the test on Caulobacter cresentus (setting [7]) was more than 100 µM.

On to `Fc1ccc([B-]2(c3ccc(F)cc3)[NH2+]CCO2)cc1` [(4), di-(p-fluorophenyl)borinic acid ethanolamine ester], for which the results for the 50% inhibitory concentration (IC50) in the test on Bacillus subtilis (setting [6]) and in the test on Caulobacter cresentus (setting [7]) were 34 µM and 85 µM, respectively.

For `Clc1ccc([B-]2(c3ccc(Cl)cc3)[NH2+]CCO2)cc1` [(5), di-(p-chlorophenyl)borinic acid ethanolamine ester], the IC50 with Bacillus subtilis (setting [6]) came to 32 µM; in the test on Caulobacter cresentus (setting [7]) it was 17 µM.

For the compound `NCCNc1ncnc2[nH]cnc12` [compound (8)], the inhibitory activity result in test [4] was “relatively low (mM range)”.
